Experimental data: patent US20230399311A1, “POLYMORPHS OF SUBSTITUTED ISOQUINOLINE-BASED RHO KINASE INHIBITORS” (BioAxone BioSciences, Inc., priority 2022, published 2023)

Assays:
[1] = pH-dependent stability in buffer solutions; type: physicochemical
Experimental: The solutions were stored in vials at 25° C., 40° C., and 60° C. […] Purity was measured by HPLC.

[2] = Partition coefficient, octanol/water; type: physicochemical
Experimental: The partition coefficient of NRL-1049 adipate was determined according to the following procedure. In a 500 mL separation funnel, 120 mL water and 120 mL octanol were combined, mixed well, and allowed to separate into two layers. Approximately 100 mL of the organic phase layer and approximately 100 mL from the aqueous phase layer were removed and utilized in the following steps. Three 100 mL separation funnels were labeled as Sample 1, Sample 2, and Sample 3. […] The P values were as follows: Sample 1=0.0053, Sample 2=0.0049, Sample 3=0.0050.

In the case of `C[C@@H](N)C1CCN(S(=O)(=O)c2cccc3cnccc23)CC1.O=C(O)CCCCC(=O)O` [NRL-1049 Adipate], the Appearance ([1]; Acetate Buffer, 1 Wk, 25° C.) is reported as “No change”, the “Purity (% Area)” value ([1]; Acetate Buffer, 1 Wk, 25° C.) is reported as 99.7 % Area and the pH ([1]; Acetate Buffer, 1 Wk, 25° C.) is reported as 4.8. For the same compound, the Appearance ([1]; Acetate Buffer, 1 Wk, 40° C.) was “No change”, the “Purity (% Area)” value ([1]; Acetate Buffer, 1 Wk, 40° C.) was 99.7 % Area and the pH ([1]; Acetate Buffer, 1 Wk, 40° C.) was 4.7. For the same compound, the Appearance ([1]; Acetate Buffer, 1 Wk, 60° C.) was “No change”, the “Purity (% Area)” value ([1]; Acetate Buffer, 1 Wk, 60° C.) was 99.8 % Area and the pH ([1]; Acetate Buffer, 1 Wk, 60° C.) was 4.7. For the same compound, the Appearance ([1]; Acetate Buffer, 2 Wk, 25° C.) was “No change”, the “Purity (% Area)” value ([1]; Acetate Buffer, 2 Wk, 25° C.) was 99.7 % Area and the pH ([1]; Acetate Buffer, 2 Wk, 25° C.) was 4.6. For the same compound, the Appearance ([1]; Acetate Buffer, 2 Wk, 40° C.) was “No change”, the “Purity (% Area)” value ([1]; Acetate Buffer, 2 Wk, 40° C.) was 99.7 % Area and the pH ([1]; Acetate Buffer, 2 Wk, 40° C.) was 4.5. The Appearance ([1]; Acetate Buffer, 2 Wk, 60° C.) was “No change”, the “Purity (% Area)” value ([1]; Acetate Buffer, 2 Wk, 60° C.) was 99.7 % Area and the pH ([1]; Acetate Buffer, 2 Wk, 60° C.) was 4.5. For the same compound, the Appearance ([1]; Acetate Buffer, 3 Wk, 25° C.) was “No change”, the “Purity (% Area)” value ([1]; Acetate Buffer, 3 Wk, 25° C.) was 99.6 % Area and the pH ([1]; Acetate Buffer, 3 Wk, 25° C.) was 4.6. For the same compound, the Appearance ([1]; Acetate Buffer, 3 Wk, 40° C.) was “No change”, the “Purity (% Area)” value ([1]; Acetate Buffer, 3 Wk, 40° C.) was 99.7 % Area and the pH ([1]; Acetate Buffer, 3 Wk, 40° C.) was 4.5. For the same compound, the Appearance ([1]; Acetate Buffer, 3 Wk, 60° C.) was “No change”, the “Purity (% Area)” value ([1]; Acetate Buffer, 3 Wk, 60° C.) was 99.6 % Area and the pH ([1]; Acetate Buffer, 3 Wk, 60° C.) was 4.5. The Appearance ([1]; Acetate Buffer, Time 0) was “Clear”, the “Purity (% Area)” value ([1]; Acetate Buffer, Time 0) was 99.8 % Area and the pH ([1]; Acetate Buffer, Time 0) was 4.6. For the same compound, the Appearance ([1]; Hydroxide Buffer, 1 Wk, 25° C.) was “No change”, the “Purity (% Area)” value ([1]; Hydroxide Buffer, 1 Wk, 25° C.) was 99.7 % Area and the pH ([1]; Hydroxide Buffer, 1 Wk, 25° C.) was 1.4. The Appearance ([1]; Hydroxide Buffer, 1 Wk, 40° C.) was “No change”, the “Purity (% Area)” value ([1]; Hydroxide Buffer, 1 Wk, 40° C.) was 99.8 % Area and the pH ([1]; Hydroxide Buffer, 1 Wk, 40° C.) was 1.4. The Appearance ([1]; Hydroxide Buffer, 1 Wk, 60° C.) was “No change”, the “Purity (% Area)” value ([1]; Hydroxide Buffer, 1 Wk, 60° C.) was 99.6 % Area and the pH ([1]; Hydroxide Buffer, 1 Wk, 60° C.) was 1.3. For the same compound, the Appearance ([1]; Hydroxide Buffer, 2 Wk, 25° C.) was “No change”, the “Purity (% Area)” value ([1]; Hydroxide Buffer, 2 Wk, 25° C.) was 99.7 % Area and the pH ([1]; Hydroxide Buffer, 2 Wk, 25° C.) was 1.4. The Appearance ([1]; Hydroxide Buffer, 2 Wk, 40° C.) was “No change”, the “Purity (% Area)” value ([1]; Hydroxide Buffer, 2 Wk, 40° C.) was 99.6 % Area and the pH ([1]; Hydroxide Buffer, 2 Wk, 40° C.) was 1.4. The Appearance ([1]; Hydroxide Buffer, 2 Wk, 60° C.) was “No change”, the “Purity (% Area)” value ([1]; Hydroxide Buffer, 2 Wk, 60° C.) was 99.6 % Area and the pH ([1]; Hydroxide Buffer, 2 Wk, 60° C.) was 1.3. The Appearance ([1]; Hydroxide Buffer, 3 Wk, 25° C.) was “No change”, the “Purity (% Area)” value ([1]; Hydroxide Buffer, 3 Wk, 25° C.) was 99.6 % Area and the pH ([1]; Hydroxide Buffer, 3 Wk, 25° C.) was 1.4. For the same compound, the Appearance ([1]; Hydroxide Buffer, 3 Wk, 40° C.) was “No change”, the “Purity (% Area)” value ([1]; Hydroxide Buffer, 3 Wk, 40° C.) was 99.6 % Area and the pH ([1]; Hydroxide Buffer, 3 Wk, 40° C.) was 1.4. The Appearance ([1]; Hydroxide Buffer, 3 Wk, 60° C.) was “No change”, the “Purity (% Area)” value ([1]; Hydroxide Buffer, 3 Wk, 60° C.) was 99.6 % Area and the pH ([1]; Hydroxide Buffer, 3 Wk, 60° C.) was 1.3. For the same compound, the Appearance ([1]; Hydroxide Buffer, Time 0) was “Clear”, the “Purity (% Area)” value ([1]; Hydroxide Buffer, Time 0) was 99.7 % Area and the pH ([1]; Hydroxide Buffer, Time 0) was 1.3. The Appearance ([1]; Phosphate Buffer, 1 Wk, 25° C.) was “No change”, the “Purity (% Area)” value ([1]; Phosphate Buffer, 1 Wk, 25° C.) was 99.4 % Area and the pH ([1]; Phosphate Buffer, 1 Wk, 25° C.) was 7.0. For the same compound, the Appearance ([1]; Phosphate Buffer, 1 Wk, 40° C.) was “No change”, the “Purity (% Area)” value ([1]; Phosphate Buffer, 1 Wk, 40° C.) was 95.9 % Area and the pH ([1]; Phosphate Buffer, 1 Wk, 40° C.) was 7.0. For the same compound, the Appearance ([1]; Phosphate Buffer, 1 Wk, 60° C.) was “No change”, the “Purity (% Area)” value ([1]; Phosphate Buffer, 1 Wk, 60° C.) was 91.3 % Area and the pH ([1]; Phosphate Buffer, 1 Wk, 60° C.) was 6.9. The Appearance ([1]; Phosphate Buffer, 2 Wk, 25° C.) was “No change”, the “Purity (% Area)” value ([1]; Phosphate Buffer, 2 Wk, 25° C.) was 95.4 % Area and the pH ([1]; Phosphate Buffer, 2 Wk, 25° C.) was 6.7. For the same compound, the Appearance ([1]; Phosphate Buffer, 2 Wk, 40° C.) was “No change”, the “Purity (% Area)” value ([1]; Phosphate Buffer, 2 Wk, 40° C.) was 94.4 % Area and the pH ([1]; Phosphate Buffer, 2 Wk, 40° C.) was 6.7. The Appearance ([1]; Phosphate Buffer, 2 Wk, 60° C.) was “No change”, the “Purity (% Area)” value ([1]; Phosphate Buffer, 2 Wk, 60° C.) was 83.0 % Area and the pH ([1]; Phosphate Buffer, 2 Wk, 60° C.) was 6.7. For the same compound, the Appearance ([1]; Phosphate Buffer, 3 Wk, 25° C.) was “No change”, the “Purity (% Area)” value ([1]; Phosphate Buffer, 3 Wk, 25° C.) was 94.9 % Area and the pH ([1]; Phosphate Buffer, 3 Wk, 25° C.) was 6.7. The Appearance ([1]; Phosphate Buffer, 3 Wk, 40° C.) was “No change”, the “Purity (% Area)” value ([1]; Phosphate Buffer, 3 Wk, 40° C.) was 91.4 % Area and the pH ([1]; Phosphate Buffer, 3 Wk, 40° C.) was 6.7. For the same compound, the Appearance ([1]; Phosphate Buffer, 3 Wk, 60° C.) was “No change”, the “Purity (% Area)” value ([1]; Phosphate Buffer, 3 Wk, 60° C.) was 78.8 % Area and the pH ([1]; Phosphate Buffer, 3 Wk, 60° C.) was 6.8. For the same compound, the Appearance ([1]; Phosphate Buffer, Time 0) was “Clear”, the “Purity (% Area)” value ([1]; Phosphate Buffer, Time 0) was 99.5 % Area and the pH ([1]; Phosphate Buffer, Time 0) was 6.7. The “Stability as a function of pH (in words)” value ([1]; pH 1.2 solution) was “most stable”, the “Stability as a function of pH (in words)” value ([1]; pH 6.8 buffer) was “least stable” and the “Partition coefficient P (organic phase/aqueous phase)” value ([2]; Sample 1: 40 mL aqueous phase, 10 mL organic phase (octanol/water)) was 0.0053. For the same compound, the “Partition coefficient P (organic phase/aqueous phase)” value ([2]; Sample 2: 25 mL aqueous phase, 25 mL organic phase (octanol/water)) was 0.0049, the “Partition coefficient P (organic phase/aqueous phase)” value ([2]; Sample 3: 10 mL aqueous phase, 40 mL organic phase (octanol/water)) was 0.0050 and the “Hydrophilicity (in words)” value ([2]; from octanol/water P values) was “highly hydrophilic”.
